For eleven molecules, TGI and GI50 results are on record in PubChem BioAssay (NCI).

Test systems include HCT-116 colon; SW-620 colon; OVCAR-3 ovarian; NCI-H23 lung; UACC-257 melanoma; ACHN renal; NCI-H460 lung; SF-268 CNS.
Common to all, as to experiment: NCI-60 cell line screen, 48 h

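Dose response: 5 concentrations. Exposure: 48 h. Format: 96-well plates. Endpoint: linear interpolation; highest concentration if not reached. Abbreviation: GI50, concentration required for 50% inhibition of growth. TGI: total growth inhibition.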

Regarding `CC(=C/c1ccccc1)/C=C1/NC(=S)N(/C=C2\C(=O)Oc3ccccc3C2=O)C1=O`, the TGI in the test on HCT-116 colon, in the test with SW-620 colon, in the test with OVCAR-3 ovarian, in the test with NCI-H23 lung, in the test on UACC-257 melanoma and in the test on ACHN renal was over 100 µM in each case. Moreover, the TGI with NCI-H460 lung and in the test with SF-268 CNS was over 100 µM in each case. In addition, in the test on SW-620 colon, the GI50 was over 100 µM.

`Cc1ccc([C@]2(C)CC[C@H](C)/C2=C\Br)c(O)c1`: the GI50 in the test with HCT-116 colon is 2.88 µM; in the test on SW-620 colon, 3.98 µM; in the test with OVCAR-3 ovarian, 3.23 µM; in the test with NCI-H23 lung, 11.4 µM; with UACC-257 melanoma it was 9.22 µM; in the test on ACHN renal it was 7.5 µM. Further, the GI50 is 4.23 µM in the test on NCI-H460 lung and 6.18 µM with SF-268 CNS. In addition, the TGI in the test with HCT-116 colon is 9.33 µM; in the test with SW-620 colon it was 16.2 µM; in the test on OVCAR-3 ovarian, 12.2 µM; in the test with NCI-H23 lung, 24.9 µM; with UACC-257 melanoma, 22 µM; in the test with ACHN renal, 26.1 µM. Besides, the TGI with NCI-H460 lung was found to be 16.5 µM; in the test on SF-268 CNS, 21.7 µM.

Regarding `O=C1C(Cl)=C(Nc2cccc(C(F)(F)F)c2)C(=O)N1Cc1ccc(Cl)cc1`, the GI50 in the test with HCT-116 colon was 0.0705 µM; in the test with SW-620 colon it was 0.0609 µM; in the test on OVCAR-3 ovarian, 0.16 µM; with NCI-H23 lung, 0.162 µM; in the test with UACC-257 melanoma, 6.59 µM; in the test on ACHN renal, 0.421 µM. The GI50 in the test with NCI-H460 lung is under 0.0461 µM; in the test with SF-268 CNS, 0.312 µM. The TGI with HCT-116 colon worked out at 4.88 µM; with SW-620 colon, 16.9 µM; with OVCAR-3 ovarian, 5.76 µM; in the test on NCI-H23 lung, 8.01 µM; in the test with UACC-257 melanoma, 22.2 µM; in the test on ACHN renal it was 15.1 µM. Besides, the TGI in the test on NCI-H460 lung came to 13.3 µM; in the test on SF-268 CNS it was 14.8 µM.

As to `O=c1oc2c(C(F)(F)F)cccc2cc1-c1csc(Nc2ccc(OCCF)cc2)n1`, the GI50 in the test with HCT-116 colon was 0.032 µM; in the test with SW-620 colon it was 0.0468 µM; in the test on OVCAR-3 ovarian it was 0.0357 µM; in the test on NCI-H23 lung it was 0.0544 µM; in the test with UACC-257 melanoma, 0.653 µM; with ACHN renal, 0.0609 µM. Further, the GI50 was 0.0357 µM in the test with NCI-H460 lung and 0.086 µM with SF-268 CNS. Besides, the TGI with HCT-116 colon is 0.54 µM; in the test with SW-620 colon, over 100 µM; with OVCAR-3 ovarian it was 5.75 µM; in the test on NCI-H23 lung it was 23.4 µM; in the test on UACC-257 melanoma it was over 100 µM; with ACHN renal, 13.5 µM. The same molecule gave a TGI in the test on SF-268 CNS of over 60.5 µM.

As for `O=C(O)c1cc2ccccc2c2c1C(=O)c1ccccc1-2`, the TGI in the test on HCT-116 colon, in the test on SW-620 colon, in the test on OVCAR-3 ovarian, with NCI-H23 lung, in the test with UACC-257 melanoma and with ACHN renal was over 100 µM throughout. In addition, the TGI in the test with NCI-H460 lung and in the test on SF-268 CNS was over 100 µM in each case.

In the case of `CCN(c1cc(C#CCN2CCOCC2)cc(C(=O)NCc2c(C)cc(C)[nH]c2=O)c1C)C1CCC(N(C)CCOC)CC1` (stereo not drawn), the GI50 in the test with HCT-116 colon, in the test with SW-620 colon, in the test on OVCAR-3 ovarian, with NCI-H23 lung, in the test with UACC-257 melanoma and in the test on ACHN renal was over 100 µM in each case. Also, the GI50 in the test with NCI-H460 lung and in the test with SF-268 CNS was over 100 µM in each case. For the same molecule, the TGI with HCT-116 colon, in the test with SW-620 colon, with OVCAR-3 ovarian, in the test with NCI-H23 lung, in the test on UACC-257 melanoma and in the test on ACHN renal was over 100 µM throughout. In addition, the TGI in the test with NCI-H460 lung and with SF-268 CNS was over 100 µM throughout.

Take `CC(=O)c1nc2ccccc2n1CC(=O)c1cccc(Cl)c1`: the GI50 in the test on HCT-116 colon is 0.401 µM; in the test on SW-620 colon, 0.278 µM; with OVCAR-3 ovarian, 0.239 µM; with NCI-H23 lung it was 0.522 µM; in the test on UACC-257 melanoma, 1.69 µM; in the test with ACHN renal it was 1.08 µM. For the same molecule, the GI50 in the test on NCI-H460 lung was 0.36 µM; in the test on SF-268 CNS, 1.12 µM. The TGI was over 100 µM with HCT-116 colon; over 100 µM in the test on SW-620 colon; over 100 µM in the test on OVCAR-3 ovarian; over 47.5 µM in the test on NCI-H23 lung; over 100 µM in the test on UACC-257 melanoma; over 100 µM in the test with ACHN renal. In the test on SF-268 CNS, this molecule returned a TGI of over 71.7 µM.

Regarding `Cc1c([N+](=O)[O-])oc2ccc3ccccc3c12`, the TGI is 34.2 µM in the test on HCT-116 colon; over 100 µM in the test with SW-620 colon; over 100 µM in the test with OVCAR-3 ovarian; over 100 µM with NCI-H23 lung; over 100 µM with UACC-257 melanoma; over 100 µM in the test on ACHN renal. The TGI with NCI-H460 lung and with SF-268 CNS was over 100 µM in each case.

Take `O=C1C(Cl)=C(Nc2cccc(O)c2)C(=O)N1Cc1ccc(Cl)cc1Cl`: the GI50 was 2.01 µM in the test on HCT-116 colon; 0.565 µM in the test on SW-620 colon; 12.1 µM in the test on OVCAR-3 ovarian; 3.78 µM with NCI-H23 lung; 8.76 µM in the test with UACC-257 melanoma; 5.59 µM in the test on ACHN renal. Moreover, the GI50 is 11.4 µM in the test on NCI-H460 lung and 6.09 µM in the test with SF-268 CNS. Besides, the TGI came out at 12.4 µM in the test on HCT-116 colon; 15.7 µM in the test with SW-620 colon; 26.4 µM in the test on OVCAR-3 ovarian; 17.8 µM with NCI-H23 lung; 21.5 µM in the test on UACC-257 melanoma; 17.7 µM in the test on ACHN renal. In addition, the TGI with NCI-H460 lung was 29.7 µM; in the test with SF-268 CNS, 21.9 µM.

Regarding `O=C(NC(=S)Nc1cc(Cl)ccc1O)c1cccc(Br)c1`, the GI50 in the test with HCT-116 colon was 10.8 µM; in the test on SW-620 colon, 4.77 µM; in the test with OVCAR-3 ovarian, 4.72 µM; with NCI-H23 lung, 7.93 µM; in the test on UACC-257 melanoma, 15.3 µM; in the test with ACHN renal, 6.85 µM. The GI50 in the test on NCI-H460 lung is 4.42 µM; in the test on SF-268 CNS, 7.83 µM. For the same molecule, the TGI is over 100 µM in the test on HCT-116 colon; over 100 µM with SW-620 colon; 24.9 µM in the test on OVCAR-3 ovarian; over 100 µM in the test with NCI-H23 lung; over 100 µM with UACC-257 melanoma; over 100 µM with ACHN renal. Also, the TGI in the test on NCI-H460 lung and in the test on SF-268 CNS was over 100 µM in each case.

On to `O=C(O)C(Oc1nc(=S)[nH]c(=S)[nH]1)(c1ccc(Cl)cc1)c1ccc(Cl)cc1`, for which the TGI in the test on HCT-116 colon, in the test on SW-620 colon, in the test with OVCAR-3 ovarian, in the test with NCI-H23 lung, in the test on UACC-257 melanoma and with ACHN renal was over 100 µM throughout. The TGI in the test with NCI-H460 lung and in the test on SF-268 CNS was over 100 µM throughout.
